Measurements taken from patent publication US12286442B2, “Methods and materials for increasing transcription factor eb polypeptide levels” (University of Pittsburgh—Of the Commonwealth System of …, priority 2019, dated 2025).

Assays:
[1] = test system: TFEB; experiment: High content screen measuring TFEB nuclear accumulation (TFEB nuclear/cytosol ratio) in BEAS-2B cells stably expressing TFEB-EGFP; format: cell-based, human; conditions: 18 hours incubation
Summary of the method: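 Readout: lowest compound concentration giving a 25% rise in nuclear/cytosol TFEB-GFP ratio, from DAPI-masked nuclear and mask-expanded cytosolic signals. Cells (BEAS-2B, TFEB-EGFP stable, ~2300–2500/well) rested 8 hours, then treated 18 hours with compound serial dilutions in 2% FBS medium before PFA fixation and DAPI staining.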

[2] = test system: BEAS-2B cells; experiment: Toxicity: compound concentration needed to induce greater than 50 percent of cell loss; format: cell-based, human; conditions: 18 hours incubation
Summary of the method: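 Reported value is the concentration giving greater than 50 percent cell loss, grouped into bins (≥25 μM; between 1 and 25 μM; ≤1 μM as "+++"). Measured by high-content imaging of DAPI-stained BEAS-2B TFEB-EGFP cells fixed after 18 h compound exposure.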

Compound | efficacy (minimal compound concentration needed to increase TFEB nuclear/cytosol ratio by 25%) [1] | toxicity (compound concentration needed to induce greater than 50 percent of cell loss) [2]
COc1ccc2nc(-c3ccncc3)nc(Nc3ccc4nc(C(C)C)sc4c3)c2c1 [Compound 364] | + (“+” equals >25 μM) | + (cell loss of greater than 50 percent at a concentration that equals or is greater than 25 μM was represented as)
CCCCc1nc2ccc(Nc3nc(-c4ccncc4)nc4ncccc34)cc2o1 [Compound 365] | +++ (“+++” equals ≤1 μM) | + (cell loss of greater than 50 percent at a concentration that equals or is greater than 25 μM was represented as)
CCc1nc2ccc(Nc3nc(-c4ccncc4)nc4cc(F)ccc34)cc2s1 [Compound 366] | + (“+” equals >25 μM) | + (cell loss of greater than 50 percent at a concentration that equals or is greater than 25 μM was represented as)
CC(C)c1nc2ccc(Nc3nc(-c4ccncc4)nc4c(F)cccc34)cc2s1 [Compound 367] | ++ (“++” equals between ≤25 μM and >1 μM) | + (cell loss of greater than 50 percent at a concentration that equals or is greater than 25 μM was represented as)
CCc1nc2ccc(Nc3nc(-c4ccncc4)nc4cccc(F)c34)cc2s1 [Compound 368] | ++ (“++” equals between ≤25 μM and >1 μM) | + (cell loss of greater than 50 percent at a concentration that equals or is greater than 25 μM was represented as)
CCc1nc2ccc(Nc3nc(-c4ccncc4)nc4c(F)cccc34)cc2s1 [Compound 369] | + (“+” equals >25 μM) | + (cell loss of greater than 50 percent at a concentration that equals or is greater than 25 μM was represented as)
COc1ccc2c(Nc3cc(F)c4[nH]ccc4c3)nc(-c3ccncc3)nc2c1 [Compound 370] | +++ (“+++” equals ≤1 μM) | + (cell loss of greater than 50 percent at a concentration that equals or is greater than 25 μM was represented as)
Cc1cccc2c(Nc3ccc4ncsc4c3)nc(-c3ccncc3)nc12 [Compound 371] | +++ (“+++” equals ≤1 μM) | + (cell loss of greater than 50 percent at a concentration that equals or is greater than 25 μM was represented as)
Fc1cccc2c(Nc3ccc4ncsc4c3)nc(-c3ccncc3)nc12 [Compound 372] | +++ (“+++” equals ≤1 μM) | + (cell loss of greater than 50 percent at a concentration that equals or is greater than 25 μM was represented as)
Fc1cccc2c(Nc3ccc4nc(C5CC5)sc4c3)nc(-c3ccncc3)nc12 [Compound 373] | ++ (“++” equals between ≤25 μM and >1 μM) | + (cell loss of greater than 50 percent at a concentration that equals or is greater than 25 μM was represented as)
CC(C)c1nc2ccc(Nc3nc(-c4ccncc4)nc4ccccc34)cc2o1 [Compound 374] | ++ (“++” equals between ≤25 μM and >1 μM) | + (cell loss of greater than 50 percent at a concentration that equals or is greater than 25 μM was represented as)
